# In US12290575B2, “Fluorescent compound comprising a fluorophore conjugated to a pH-triggered polypeptide” (UNIVERSITY OF RHODE ISLAND BOARD OF TRUSTEES, priority 2016, dated 2025):
# Where a SMILES comes first, the peptide text is derived from it. Where no end group is shown, it is not given here. The star is where a group is joined. X1 = CC1(C)C(/C=C/C=C/C=C/C=C2/N(CCCCCC(=O)NCCN3C(=O)CC(*)C3=O)c3ccc4ccccc4c3C2(C)C)=[N+](CCCCS(=O)(=O)[O-])c2ccc3ccccc3c21; ICG maleimide = indocyanine green maleimide
# Experiments:
# [1] = residue X in AcWL-X-LL, relative to virtual glycine; Arg and Lys from pH 1 data; cited from earlier work
# [2] = current use; cited from earlier work
# [3] = cited from earlier work
# [4] = high dose of 5 mg/kg of body weight; cited from earlier work
# [5] = Fluorescence imaging of blood flow in mice (ear, leg, blood samples); assay type: in vivo, nude mice; settings: for fluorescent signal in blood samples: blood withdrawn 5-120 min after IV; for imaging of blood vessels (ear, leg): 100 μL of 40 μM IV, 5, 30, 60, 90, 120 min
# Experimental: Adult female nude mice (Envigo), 20 g in body mass were used in the study. Fluorescent constructs were given as a single tail vein injection in amounts of 100 μL of 40 μM in PBS. Imaging of mouse ear and leg was performed at 5, 30, 60, 90 and 120 min after construct administration. At 5, 30, 60, 90 and 120 min after construct administration 5 μL of blood was withdrawn from tail (and mixed with 5 μL of anticoagulating solution to preserve blood) while animal was under anesthesia. Mice were euthanized immediately after last imaging point (120 min). Blood collected from all animals was deposited on the glass slide, dried and imaged. Imaging was performed using Novadaq clinical imaging instrument. Autofluorescence was established by imaging mouse with no injection of fluorescent constructs (the level of autofluorescence signal was insignificant compared to the signal after the constructs administration).
# 4T1 tumors = test: NIR fluorescence imaging of 4T1 tumors in mice after IV or IP injection; assay type: in vivo, BALB/cAnNHsd mice; settings: 16 h
# Experimental: Adult female nude mice and female BALB/cAnNHsd mice (Envigo), 20-25 g in body mass were used in the study. Mouse mammary cancer 4T1 cells were subcutaneously implanted in the right flank (8×10^5 cells/0.1 mL/flank) of adult female BALB/cAnNHsd mice. Rat bladder cancer AY27 cells were subcutaneously implanted in the right flank (8×10^5 cells/0.1 mL/flank) of adult female nude mice. When tumors reached approximately 5-6 mm in diameter, single tail vein injection or single intraperitoneal injection of fluorophore-pHLIP® solutions in PBS were performed. Fluorescent constructs were used in amounts of 100 μL of 40 μM or 100 μL of 20 μM, or 100 μL of 10 μM, or 100 μL of 5 μM. Imaging of mouse was performed at 16 hours after constructs administration. Skin was removed from the tumor site just before imaging while animal was under gas anesthesia, and mice were euthanized immediately after imaging. Tumor, kidney and liver were harvested, imaged and used for histopathological analysis. Imaging was performed using Stryker clinical imaging instrument. Autofluorescence was established by imaging mouse with no injection of fluorescent constructs (the level of autofluorescence signal was insignificant compared to the signal after the constructs administration).
# [6] = test system: urothelial carcinoma in human bladder specimens; test: Ex vivo NIR fluorescence imaging of human bladder specimens after instillation
# Experimental: 22 urothelial carcinoma patients that were scheduled for radical cystectomy were selected over a twelve month period. After radical cystectomy, bladder specimens were immediately removed and irrigated 3 times for 5 min via catheter with non-buffered saline and instilled and incubated with 80 ml of 8 μM or 32.8 μg/ml (unless otherwise is stated, see notes to Table 8) of ICG-Var3 construct or ICG-Cys in PBS pH 7.4 containing 10 mM D-glucose for 60 minutes. Then, the unbound constructs were removed by rinsing with 80 ml of saline solution 3-5 times, the bladder was irrigated thoroughly with buffered saline and opened using a Y incision on the anterior wall. Using a da Vinci Si near-infrared fluorescence imaging system (Firefly®), ex vivo fluorescent and white light imaging of the entire bladder and its parts was performed. The fluorescent spots were marked and standard pathological analysis was carried out to explore the correlation between appearance of fluorescent signal and cancer lesions.
# The specimen was sectioned and submitted after 24 hour fixation in 10% phosphate-buffered formalin according to the standard institutional grossing manual, with emphasis on the marked areas of the bladder. The sections were processed for routine histology into paraffin-embedded blocks. […]
# Statistical parameters were calculated according to the following equations: […]
molecule,measurement,setting,value
"C[C@H](N)C(=O)O [Ala, Alanine]",ΔGX^cor (solvation free energy of the side chain),[1],+0.65 kcal/mol
"N=C(N)NCCC[C@H](N)C(=O)O [Arg, Arginine]",ΔGX^cor (solvation free energy of the side chain),[1],-0.66 kcal/mol
"NC(=O)C[C@H](N)C(=O)O [Asn, Asparagine]",ΔGX^cor (solvation free energy of the side chain),[1],+0.30 kcal/mol
"CC1(C)C(/C=C/C=C/C=C/C=C2\N(CCCCS(=O)(=O)[O-])c3ccc4ccccc4c3C2(C)C)=[N+](CCCCS(=O)(=O)[O-])c2ccc3ccccc3c21.[Na+] [ICG, indocyanine green]",imaging time used for free ICG,[2],2 to 5 min
same,blood clearance,[3]; half lifetime is just few minutes,fast blood clearance
same,metabolites,[3]; in vivo,no known metabolites
same,time after which it binds to the regional lymph nodes,[3]; injected outside blood vessels,1 to 2 h
same,time of appearing unconjugated in the bile after injection,"[3]; intravenous injection, depends on liver vascularization and function",about 8 min
same,toxic effects,[4],No significant toxic effects
CC[C@H](C)[C@H](NC(=O)[C@@H]1CCCN1C(=O)[C@H](CC(N)=O)NC(=O)[C@H](CCC(N)=O)NC(=O)[C@H](CCC(=O)O)NC(=O)[C@H](CSC1CC(=O)N(CCNC(=O)CCCCCN2/C(=C/C=C/C=C/C=C/C3=[N+](CCCCS(=O)(=O)[O-])c4ccc5ccccc5c4C3(C)C)C(C)(C)c3c2ccc2ccccc32)C1=O)NC(=O)[C@H](C)N)C(=O)N[C@@H](Cc1ccc(O)cc1)C(=O)N[C@@H](Cc1c[nH]c2ccccc12)C(=O)N[C@@H](C)C(=O)N[C@@H](CCCNC(=N)N)C(=O)N[C@@H](Cc1ccc(O)cc1)C(=O)N[C@@H](C)C(=O)N[C@@H](CC(N)=O)C(=O)N[C@@H](Cc1c[nH]c2ccccc12)C(=O)N[C@@H](CC(C)C)C(=O)N[C@@H](Cc1ccccc1)C(=O)N[C@H](C(=O)N[C@H](C(=O)N1CCC[C@H]1C(=O)N[C@@H](CC(C)C)C(=O)N[C@@H](CC(C)C)C(=O)N[C@@H](CC(C)C)C(=O)N[C@@H](CC(C)C)C(=O)N[C@@H](CC(N)=O)C(=O)N[C@@H](CC(C)C)C(=O)N[C@@H](C)C(=O)N[C@@H](CC(C)C)C(=O)N[C@@H](CC(C)C)C(=O)N[C@H](C(=O)N[C@@H](CC(=O)O)C(=O)N[C@@H](C)C(=O)N[C@@H](CC(=O)O)C(=O)N[C@@H](CCC(=O)O)C(=O)NCC(=O)N[C@H](C(=O)O)[C@@H](C)O)C(C)C)[C@@H](C)O)[C@@H](C)O (stereo partly drawn) [ICG-NpHLIP®] (H-AC(X1)EQNPIYWARYANWLFTTPLLLLNLALLVDADEGT-OH),fluorescent signal in blood samples,[5],significantly reduced signal
CC(C)C[C@H](NC(=O)[C@H](Cc1ccc(O)cc1)NC(=O)[C@H](C)NC(=O)[C@H](CCCNC(=N)N)NC(=O)[C@H](Cc1c[nH]c2ccccc12)NC(=O)[C@@H]1CCCN1C(=O)[C@H](CC(N)=O)NC(=O)[C@H](CCC(N)=O)NC(=O)[C@H](CC(=O)O)NC(=O)[C@H](CC(=O)O)NC(=O)[C@H](CSC1CC(=O)N(CCNC(=O)CCCCCN2/C(=C/C=C/C=C/C=C/C3=[N+](CCCCS(=O)(=O)[O-])c4ccc5ccccc5c4C3(C)C)C(C)(C)c3c2ccc2ccccc32)C1=O)NC(=O)[C@H](C)N)C(=O)N[C@@H](CC(=O)O)C(=O)N[C@@H](CC(C)C)C(=O)N[C@@H](CC(C)C)C(=O)N[C@@H](Cc1ccccc1)C(=O)N1CCC[C@H]1C(=O)N[C@H](C(=O)N[C@@H](CC(=O)O)C(=O)N[C@H](C(=O)N[C@@H](CC(C)C)C(=O)N[C@@H](CC(C)C)C(=O)N[C@@H](CC(C)C)C(=O)N[C@@H](CC(=O)O)C(=O)N[C@@H](CC(C)C)C(=O)N[C@@H](CC(C)C)C(=O)N[C@@H](Cc1c[nH]c2ccccc12)C(=O)N[C@@H](C)C(=O)O)[C@@H](C)O)[C@@H](C)O (stereo partly drawn) [ICG-Var3] (H-AC(X1)DDQNPWRAYLDLLFPTDTLLLDLLWA-OH),fluorescent signal in tumor relative to kidney and liver,4T1 tumors,signal in tumor was higher than in kidney and similar or slightly less than in liver
same,adverse morphological findings in specimens after incubation,[6],did not show any adverse morphological findings
same,fluorescent signal in blood samples,[5],persistence of strong fluorescent signal within 2 hours
CC[C@H](C)[C@H](NC(=O)[C@@H]1CCCN1C(=O)[C@H](CC(N)=O)NC(=O)[C@H](CCC(N)=O)NC(=O)[C@H](CCC(=O)O)NC(=O)[C@H](CSC1CC(=O)N(CCNC(=O)CCCCCN2/C(=C/C=C/C=C/C=C/C3=[N+](CCCCS(=O)(=O)[O-])c4ccc5ccccc5c4C3(C)C)C(C)(C)c3c2ccc2ccccc32)C1=O)NC(=O)[C@H](C)N)C(=O)N[C@@H](Cc1ccc(O)cc1)C(=O)N[C@@H](Cc1c[nH]c2ccccc12)C(=O)N[C@@H](C)C(=O)N[C@@H](CCCNC(=N)N)C(=O)N[C@@H](Cc1ccc(O)cc1)C(=O)N[C@@H](C)C(=O)N[C@@H](CC(=O)O)C(=O)N[C@@H](Cc1c[nH]c2ccccc12)C(=O)N[C@@H](CC(C)C)C(=O)N[C@@H](Cc1ccccc1)C(=O)N[C@H](C(=O)N[C@H](C(=O)N1CCC[C@H]1C(=O)N[C@@H](CC(C)C)C(=O)N[C@@H](CC(C)C)C(=O)N[C@@H](CC(C)C)C(=O)N[C@@H](CC(C)C)C(=O)N[C@@H](CC(=O)O)C(=O)N[C@@H](CC(C)C)C(=O)N[C@@H](C)C(=O)N[C@@H](CC(C)C)C(=O)N[C@@H](CC(C)C)C(=O)N[C@H](C(=O)N[C@@H](CC(=O)O)C(=O)N[C@@H](C)C(=O)N[C@@H](CC(=O)O)C(=O)N[C@@H](CCC(=O)O)C(=O)NCC(=O)N[C@H](C(=O)O)[C@@H](C)O)C(C)C)[C@@H](C)O)[C@@H](C)O (stereo partly drawn) [ICG-WT pHLIP®],fluorescent signal in blood samples,[5],persistence of strong fluorescent signal within 2 hours
"N[C@@H](CO)C(=O)O [Ser, Serine]",ΔGX^cor (solvation free energy of the side chain),[1],+0.69 kcal/mol
"C[C@@H](O)[C@H](N)C(=O)O [Thr, Threonine]",ΔGX^cor (solvation free energy of the side chain),[1],+0.90 kcal/mol
ICG-Hum pHLIP®: ICG maleimide conjugated to the Cys of Hum pHLIP® GCDNNEGFFATLGGEIPLWSDVVLAIEG (SEQ ID NO: 446) (GC(ICG maleimide)DNNEGFFATLGGEIPLWSDVVLAIEG),"imaging of blood vessels (ear, leg)",[5],slow in reaching the best imagibility condition and was fast in decaying
IR800-WT pHLIP®: IR800 maleimide conjugated to the Cys of WT pHLIP® (SEQ ID NO: 444) (AC(IR800 maleimide)EQNPIYWARYADWLFTTPLLLLDLALLVDADEGT),"imaging of blood vessels (ear, leg)",[5],"better in imaging of blood vessels, however not nearly as good as ICG-WT and ICG-Var3 pHLIP®s"
